Measurements: the METLIN SMRT retention time set (Domingo-Almenara et al. 2019)

Assay: gradient 5% acetonitrile 3 min, to 50% in 2 min, to 85% in 15 min, held 3 min, 100 µL/min
Details: column: Zorbax Extend-C18 2.1 x 50 mm; eluents: water / acetonitrile, 0.1% formic acid
How it was run: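 Pure standards were analyzed in mixtures of ~100 molecules using HPLC coupled to a quadrupole time-of-flight mass spectrometer, in both positive and negative ionization mode. Separation used a Zorbax Extend-C18 column (2.1 × 50 mm, 1.8 μm) at 100 μL/min, with water and acetonitrile each containing 0.1% formic acid. Dead and dwell volumes were 40 μL and 900 μL, and data were collected over 3 months. Retention time was read from computationally picked adduct peaks, each inspected manually.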

Cc1csc(-c2ccc(N3CCN(C(=O)Cc4ccc(Cl)cc4)CC3)nc2)n1
RP-LC retention time: 902 s

CCOc1ccc(N2C(=O)C3N=NN(Cc4nc(-c5ccc(C)cc5)no4)C3C2=O)cc1 (stereo unspecified)
RP-LC retention time: 1040 s

O=C(Nc1ccc2c(c1)OCO2)C(=O)c1cccn1Cc1ccccc1
RP-LC retention time: 986 s

COc1ccc(CNC(=O)c2csc(-c3cn(C)c4ncccc34)n2)c(OC)c1
RP-LC retention time: 924 s

Cn1nccc1C(=O)Nc1sc(-c2ccccc2)cc1C(N)=O
RP-LC retention time: 810 s

Cc1ccc(-n2nc(N3CCCC(C(=O)NCCCc4ccccc4)C3)ccc2=O)cc1Cl (stereo unspecified)
RP-LC retention time: 1010 s

Cc1cc(C)c2c(-n3cccc3)nn(CC(=O)NC3CCCCCC3)c2n1
RP-LC retention time: 1050 s

C=C1C(=O)OCC2C(C(=O)O)=CC3C(C)C(C)=CC123 (stereo unspecified)
RP-LC retention time: 730 s

Cc1nnc(-c2cn(CC(=O)NC3CCCCCCC3)c3ccccc23)o1
RP-LC retention time: 903 s

CC(C)NC(=O)N1CCCC(c2cccc(C(=O)NCc3ccccc3Cl)c2)C1 (stereo unspecified)
RP-LC retention time: 909 s

CCc1ccc(-c2noc(CSc3nc4cc5c(cc4c(=O)n3CC3CCCO3)OCO5)n2)cc1 (stereo unspecified)
RP-LC retention time: 1280 s

CCCc1c(C(=O)NCC2CCCO2)nnn1-c1ccc(OC)cc1 (stereo unspecified)
RP-LC retention time: 783 s

Cc1ccc(CNC(=O)c2ccc3c(c2)CC(=O)N3C)cc1
RP-LC retention time: 730 s

CCCn1cnc2cc(-c3noc(COc4ccc(F)cc4)n3)ccc21
RP-LC retention time: 787 s

CCSc1nnnn1-c1ccc(NC(=O)c2ccc3nnsc3c2)cc1
RP-LC retention time: 838 s

COc1ccccc1-c1nnc(-c2ccc(Cl)c(S(=O)(=O)N3CCOCC3)c2)o1
RP-LC retention time: 897 s

C#CCOCC1CN(c2ccccc2)C(=O)O1 (stereo unspecified)
RP-LC retention time: 833 s

Cc1ccc(CNC(=O)Cn2c(C)cc(-c3nnc(-c4ccccc4)o3)c2C)cc1
RP-LC retention time: 949 s

COc1ccc(C(=O)N2CCC3(CC2)N=C(c2ccc(Br)cc2)NO3)c(OC)c1
RP-LC retention time: 886 s

Cc1cc(C(=O)NCc2ccc(F)cc2F)nc2cc(-c3cccs3)nn12
RP-LC retention time: 1140 s

Cc1c(CC(=O)N2CCC(C(N)=O)CC2)c(=O)oc2cc3oc4c(c3cc12)CCCC4
RP-LC retention time: 764 s

CCOC(=O)c1c(S(=O)(=O)N2CCC(C(=O)NCc3ccc(C)cc3)CC2)c(C)n(C)c1C
RP-LC retention time: 841 s

CCCN1C(=O)c2ccccc2C(C(=O)NC2CC2)C1c1cc(OC)c(OC)c(OC)c1 (stereo unspecified)
RP-LC retention time: 696 s

CC1CCCN(C(=O)c2cc3c(s2)CCN(C(=O)c2ccc(Cl)cc2)C3)C1 (stereo unspecified)
RP-LC retention time: 991 s

O=C1CCCCC(Cc2ccccc2)(C(=O)Nc2ccc(F)cc2)N1 (stereo unspecified)
RP-LC retention time: 818 s

CC(=O)N(CC(=O)N1CCc2sccc2C1COc1ccc(F)cc1)CC1CCCO1 (stereo unspecified)
RP-LC retention time: 813 s

COc1ccccc1-c1nc(-c2ccc(S(=O)(=O)N3CCCC3)cc2)no1
RP-LC retention time: 1080 s

O=C(c1cc(F)cc(F)c1)N1CCc2nc(-c3ccccc3)ncc2C1
RP-LC retention time: 946 s

CCOC(=O)c1ccc(NC(=O)CC2Sc3ncnn3C2=O)cc1 (stereo unspecified)
RP-LC retention time: 642 s

Cc1cc(-c2ccc(S(=O)(=O)N3CCC(C(=O)NCc4ccccc4)CC3)o2)n[nH]1
RP-LC retention time: 764 s

COC(=O)c1ccc2c(=O)n(CCc3ccccc3)c(N3CCOCC3)nc2c1
RP-LC retention time: 995 s

Cc1cc(F)ccc1NC(=O)c1c(O)c2cccnc2n(-c2ccc(F)cc2)c1=O
RP-LC retention time: 1240 s

O=C(Nc1cccc2ccccc12)N1CCOCC1
RP-LC retention time: 639 s

CCCn1cc(C2=CCN(S(=O)(=O)c3ccc(F)c(Cl)c3)CC2)c2cccnc21
RP-LC retention time: 1190 s

O=C(NCc1c(F)cccc1F)C(=O)NCc1n[nH]c(=O)c2ccccc12
RP-LC retention time: 695 s

CN(C)C(=O)c1cc2c(s1)CCC(C(=O)NCCc1ccccc1)C2 (stereo unspecified)
RP-LC retention time: 710 s

Cn1ncc2c3ccccc3n(CCCC(=O)N3CCN(Cc4ccccc4)CC3)c2c1=O
RP-LC retention time: 646 s

Cc1cccc(N2CCN(Cc3nc(-c4ccc(N5CCCC5)nc4)no3)CC2)c1C
RP-LC retention time: 787 s

COc1cccc(NC(=O)Nc2ccc(-c3cn4ccc(C)nc4n3)cc2)c1
RP-LC retention time: 639 s

Cc1ccccc1CNC(=O)Cn1cnc2onc(C)c2c1=O
RP-LC retention time: 738 s

CCCN(C(=O)C1CCCN(c2ncnc3c2nc2n3CCCCC2)C1)c1ccccc1C (stereo unspecified)
RP-LC retention time: 1000 s

COc1ccc(N2CCN(C(=O)c3sc4ncccc4c3-n3cccc3)CC2)cc1
RP-LC retention time: 917 s

Cc1cccc(NC(=O)C2CCCN2S(=O)(=O)c2cc3c(cc2Cl)NC(=O)CO3)c1 (stereo unspecified)
RP-LC retention time: 822 s

CCOCCCNC(=O)C1(C)Cn2c(ccc2-c2ccco2)C(=O)N1c1ccc(OC)c(OC)c1 (stereo unspecified)
RP-LC retention time: 752 s

CCc1cc(C(=O)NCCN2CCOCC2)nc2cc(-c3cccs3)nn12
RP-LC retention time: 670 s

CCCNc1cc(N2CCC(CCC(=O)Nc3ccc(OC)cc3)CC2)ncn1
RP-LC retention time: 682 s

CNC(=O)CCC[C@@H]1[C@H]2CCCN3CCC[C@@H](CN1C(=O)CC(C)C)[C@@H]23
RP-LC retention time: 568 s

CC(C)(C)c1noc(Cc2nnc(-c3ccc(F)cc3)o2)n1
RP-LC retention time: 942 s

Cc1cccc2nnc(N3CCN(C(=O)c4ccc(C(F)(F)F)s4)CC3)n12
RP-LC retention time: 751 s

CC1=C(C(=O)N(CC(=O)NC2CCC(C)CC2)c2ccc(Cl)cc2)SCCO1 (stereo unspecified)
RP-LC retention time: 1040 s

O=C(c1cccc(F)c1)N1CCN(c2cnn3c(C4CC4)nnc3c2)CC1
RP-LC retention time: 648 s

CN(C)C[C@@H]1CN(c2ncccn2)C[C@H]1NS(=O)(=O)c1cccc(C#N)c1
RP-LC retention time: 601 s

Cc1nn(C(C)C(=O)NC2CCCCC2)c(=O)c2c(C)n(-c3ccccc3)nc12 (stereo unspecified)
RP-LC retention time: 946 s

COCC(=O)N1CCCn2cc(-c3ccccc3F)nc21
RP-LC retention time: 668 s

Cc1cc(Cl)ccc1NS(=O)(=O)c1ccc2c(c1)NC(=O)C(C(=O)N1CCCC1)S2 (stereo unspecified)
RP-LC retention time: 827 s

CC1CCN(C(=O)C2CCN(S(=O)(=O)c3ccc4c(c3)CCCC(=O)N4)CC2)CC1
RP-LC retention time: 744 s

Cc1ccc(-c2cc(NC(=O)Cc3ccccc3C)on2)s1
RP-LC retention time: 1030 s

CCOc1ccccc1NC(=O)Nc1ccc2c(c1)CC(=O)N2
RP-LC retention time: 675 s

CCCCOc1ccc(CNC(=O)CN2CC=C(c3cnn(-c4ccc(C)c(C)c4)c3)CC2)cc1
RP-LC retention time: 924 s

Cc1cc(C)c(-c2noc(C)n2)c(NC(=O)c2ccccc2Cl)n1
RP-LC retention time: 744 s

CC(C)(C)CCN1CCCC(COc2ccccc2C(=O)N2CCCC2)C1 (stereo unspecified)
RP-LC retention time: 668 s

Cc1ccc(Cn2nc3ccc(S(=O)(=O)N4CCCCCC4)cn3c2=O)cc1
RP-LC retention time: 1010 s

Cc1ccccc1NC(=O)Cn1nc2c(Oc3cccc(F)c3)nccn2c1=O
RP-LC retention time: 846 s

COc1ccc(-c2cc3c4nnc(CCC(=O)N5CCCC5)n4ccn3n2)cc1
RP-LC retention time: 686 s

O=C(NCCn1nc(-n2ccnc2)ccc1=O)c1cccc(-n2cnnn2)c1
RP-LC retention time: 521 s

O=C(CN1C(=O)C(C(=O)N2CCCC2)Sc2ccccc21)Nc1cccc(F)c1 (stereo unspecified)
RP-LC retention time: 1020 s
